We go through 23 compounds from patent US8202857B2, “1,3-oxazepan-2-one and 1,3-diazepan-2-one inhibitors of 11β-hydroxysteroid dehydrogenase 1” (Vitae Pharmaceuticals, Inc., priority 2008, dated 2012).

This assay has as its target T1, human 11β-HSD1 (Homo sapiens, UniProt P28845).
T1 construct: expressed in transfected cells; host or cells: CHO cells (microsomes)
The experiment in a line: Inhibition of a microsomal preparation of 11β-HSD1 (SPA), Biological Test Example 1. To be noted: microsomes from CHO cells overexpressing human 11β-HSD1; for IC50: read-out: IC50 Range^a; for inhibition at 0.1 µM: read-out: Average % inhibition at 100 nM, 100 nM; for Average % inhibition at 100 nM: 0.1 µM. In kind it is biochemical. The method, then:
All reactions were carried out at rt in 96 well clear flexible PET Microbeta plates (PerkinElmer). […] After a 10 minute pre-incubation, 50 μL of enzyme solution containing microsomes isolated from CHO cells overexpressing human 11β-HSD1 (10-20 μg/ml of total protein) was added, and the plates were incubated for 90 minutes at rt. The reaction was stopped by adding 50 μl of the SPA beads suspension containing 10 μM 18β-glycyrrhetinic acid, 5 mg/ml protein A coated YSi SPA beads (GE Healthcare) and 3.3 μg/ml of anti-cortisol antibody (East Coast Biologics) in Superblock buffer (Bio-Rad). The plates were shaken for 120 minutes at rt, and the SPA signal corresponding to [^3H]cortisol was measured on a Microbeta plate reader.

Some results are limits rather than exact numbers.

T1 sequence (P28845 whole entry): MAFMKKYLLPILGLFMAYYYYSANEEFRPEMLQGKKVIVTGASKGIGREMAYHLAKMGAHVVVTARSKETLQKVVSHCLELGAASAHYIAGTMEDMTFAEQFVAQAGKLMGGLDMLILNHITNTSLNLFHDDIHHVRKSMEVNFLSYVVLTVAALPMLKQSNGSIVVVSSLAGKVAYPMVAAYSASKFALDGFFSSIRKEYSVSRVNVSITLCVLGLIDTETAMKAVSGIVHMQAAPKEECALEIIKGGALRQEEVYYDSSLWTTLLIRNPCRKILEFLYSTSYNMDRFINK

As to `C[C@@H](c1ccc(-c2ccn(C3CC3)c(=O)c2)cc1)N1CCC[C@](CC(C)(C)O)(c2ccccc2)OC1=O` [EXAMPLE 18, (S)-3-((S)-1-(4-(1-cyclopropyl-2-oxo-1,2-dihydropyridin-4-yl)phenyl)ethyl)-7-(2-hydroxy-2-methylpropyl)-7-phenyl-1,3-oxazepan-2-one], the IC50 is less than 100 nM and the inhibition at 0.1 µM is 86.8%.
`C=C(C)C[C@]1(c2ccccc2)CCCN([C@@H](C)c2ccc(Br)cc2)C(=O)N1` [EXAMPLE 7, (S)-1-((S)-1-(4-bromophenyl)ethyl)-4-(2-methylallyl)-4-phenyl-1,3-diazepan-2-one]: the IC50 is less than 100 nM and the inhibition at 0.1 µM was 93%.
In the case of `C[C@@H](c1ccc(-c2ccc(=O)n(C3CC3)c2)cc1)N1CCC[C@](CC(C)(C)O)(c2ccccc2)NC1=O` [EXAMPLE 20, (S)-1-((S)-1-(4-(1-cyclopropyl-6-oxo-1,6-dihydropyridin-3-yl)phenyl)ethyl)-4-(2-hydroxy-2-methylpropyl)-4-phenyl-1,3-diazepan-2-one], the IC50 was less than 100 nM and the inhibition at 0.1 µM stood at 97.4%.
For the compound `C[C@@H](c1ccc(O)cc1)N1CCCC(CC(C)(C)O)(c2ccccc2)OC1=O` (single isomer, unassigned) [EXAMPLE 17 Isomer 1], the “Average % inhibition at 100 nM” value was 41.6% and the IC50 is greater than 100 nM.
Regarding `C[C@@H](c1ccc(O)cc1)N1CCCC(CC(C)(C)O)(c2ccccc2)OC1=O` (single isomer, unassigned) [EXAMPLE 17 Isomer 2], the “Average % inhibition at 100 nM” value is listed as 68.5% and the IC50 was less than 100 nM.
As to `C[C@@H](c1ccc(Br)cc1)N1CCC[C@@](CC(C)(C)O)(c2ccccc2)OC1=O` (single isomer, unassigned) [EXAMPLE 15 Isomer 2], the IC50 was greater than 100 nM and the inhibition at 0.1 µM turned out to be 31.7%.
For the compound `CC(O)C[C@]1(c2ccccc2)CCCN([C@@H](C)c2ccc(Br)cc2)C(=O)N1` (stereo partly drawn) [EXAMPLE 4, (4S)-1-((S)-1-(4-bromophenyl)ethyl)-4-(2-hydroxypropyl)-4-phenyl-1,3-diazepan-2-one], the IC50 was less than 100 nM and the inhibition at 0.1 µM was 95.8%.
In the same order, the values of `C[C@@H](c1ccc(-c2ccc(=O)n(C)c2)cc1)N1CCC[C@](CC(C)(C)O)(c2ccccc2)NC1=O` [EXAMPLE 12, (S)-4-(2-hydroxy-2-methylpropyl)-1-((S)-1-(4-(1-methyl-6-oxo-1,6-dihydropyridin-3-yl)phenyl)ethyl)-4-phenyl-1,3-diazepan-2-one] are less than 100 nM and 92.9%.
Take `C=CC[C@]1(c2ccccc2)CCCN([C@@H](C)c2ccc(Br)cc2)C(=O)N1` (single isomer, unassigned) [EXAMPLE 2 Isomer 2]: the 50% inhibitory concentration (IC50) is less than 100 nM and the inhibition at 0.1 µM came to 96.2%.
As to `C[C@@H](c1ccc(Br)cc1)N1CCC[C@](CCCO)(c2ccccc2)NC1=O` [EXAMPLE 1, (S)-1-((S)-1-(4-bromophenyl)ethyl)-4-(3-hydroxypropyl)-4-phenyl-1,3-diazepan-2-one], the IC50 was less than 100 nM and the inhibition at 0.1 µM turned out to be 95.6%.
Consider `C[C@@H](c1ccc(Br)cc1)N1CCC[C@@](CCO)(c2ccccc2)NC1=O` (single isomer, unassigned) [EXAMPLE 3 Isomer 1], for which the “Average % inhibition at 100 nM” value is 85.8% and the IC50 was less than 100 nM.
In the case of `C[C@@H](c1ccc(Br)cc1)N1CCC[C@](CC(C)(C)O)(c2ccccc2)NC1=O` [EXAMPLE 8, (S)-1-((S)-1-(4-bromophenyl)ethyl)-4-(2-hydroxy-2-methylpropyl)-4-phenyl-1,3-diazepan-2-one], the IC50 is less than 100 nM and the inhibition at 0.1 µM stood at 97.5%.
With `C[C@@H](c1ccc(-c2ccn(C)c(=O)c2)cc1)N1CCC[C@](CC(C)(C)O)(c2ccccc2)NC1=O` [EXAMPLE 11, (S)-4-(2-hydroxy-2-methylpropyl)-1-((S)-1-(4-(1-methyl-2-oxo-1,2-dihydropyridin-4-yl)phenyl)ethyl)-4-phenyl-1,3-diazepan-2-one], the IC50 was less than 100 nM and the inhibition at 0.1 µM is 98.3%.
Turning to `C=C(C)C[C@]1(c2ccccc2)CCCN([C@@H](C)c2ccc(Br)cc2)C(=O)O1` (single isomer, unassigned) [EXAMPLE 14 Isomer 1], the IC50 was less than 100 nM and the inhibition at 0.1 µM was determined as 97.4%.
Regarding `COc1ccc(-c2ccc([C@H](C)N3CCC[C@](CCO)(c4ccccc4)NC3=O)cc2)cn1` [EXAMPLE 6, (S)-4-(2-hydroxyethyl)-1-((S)-1-(4-(6-methoxypyridin-3-yl)phenyl)ethyl)-4-phenyl-1,3-diazepan-2-one], the IC50 is less than 100 nM and the inhibition at 0.1 µM is 95.5%.
For the compound `C[C@@H](c1ccc(Br)cc1)N1CCC[C@](CCC(N)=O)(c2ccccc2)NC1=O` [EXAMPLE 5, 3-((S)-1-((S)-1-(4-bromophenyl)ethyl)-2-oxo-4-phenyl-1,3-diazepan-4-yl)propanamide], the IC50 was less than 100 nM and the inhibition at 0.1 µM was 93.7%.
Regarding `C=C(C)C[C@]1(c2ccccc2)CCCN([C@@H](C)c2ccc(-c3ccc(=O)n(C)c3)cc2)C(=O)N1` [EXAMPLE 10, (S)-1-((S)-1-(4-(1-methyl-6-oxo-1,6-dihydropyridin-3-yl)phenyl)ethyl)-4-(2-methylallyl)-4-phenyl-1,3-diazepan-2-one], the IC50 is less than 100 nM and the inhibition at 0.1 µM amounted to 97.1%.
In the same order, the values of `C[C@@H](c1ccc(-c2ccn(C)c(=O)c2)cc1)N1CCC[C@](CC(C)(C)O)(c2ccccc2)OC1=O` [EXAMPLE 19, (S)-7-(2-hydroxy-2-methylpropyl)-3-((S)-1-(4-(1-methyl-2-oxo-1,2-dihydropyridin-4-yl)phenyl)ethyl)-7-phenyl-1,3-oxazepan-2-one] are less than 100 nM and 80.3%.
For the compound `C[C@@H](c1ccc(Br)cc1)N1CCC[C@](CCO)(c2ccccc2)NC1=O` (single isomer, unassigned) [EXAMPLE 3 Isomer 2], the 50% inhibitory concentration (IC50) was less than 100 nM and the inhibition at 0.1 µM worked out at 97.6%.
For the compound `C=C(C)C[C@]1(c2ccccc2)CCCN([C@@H](C)c2ccc(-c3ccn(C)c(=O)c3)cc2)C(=O)N1` [EXAMPLE 9, (S)-1-((S)-1-(4-(1-methyl-2-oxo-1,2-dihydropyridin-4-yl)phenyl)ethyl)-4-(2-methylallyl)-4-phenyl-1,3-diazepan-2-one], the IC50 was less than 100 nM and the inhibition at 0.1 µM is 95.2%.
Regarding `C[C@@H](c1ccc(-c2ccn(C3CC3)c(=O)c2)cc1)N1CCC[C@](CC(C)(C)O)(c2ccccc2)NC1=O` [EXAMPLE 13, (S)-1-((S)-1-(4-(1-cyclopropyl-2-oxo-1,2-dihydropyridin-4-yl)phenyl)ethyl)-4-(2-hydroxy-2-methylpropyl)-4-phenyl-1,3-diazepan-2-one], the IC50 is less than 100 nM and the inhibition at 0.1 µM came out at 94.2%.
With `C[C@@H](c1ccc(Br)cc1)N1CCC[C@](CC(C)(C)O)(c2ccccc2)OC1=O` (single isomer, unassigned) [EXAMPLE 15 Isomer 1], the half-inhibitory concentration (IC50) was less than 100 nM and the inhibition at 0.1 µM was found to be 86.2%.
With `C=C(C)C[C@@]1(c2ccccc2)CCCN([C@@H](C)c2ccc(Br)cc2)C(=O)O1` (single isomer, unassigned) [EXAMPLE 14 Isomer 2], the concentration for half-maximal inhibition (IC50) is less than 100 nM and the inhibition at 0.1 µM came to 111%.
